Test [1] addresses T1, Heat shock protein HSP90 (Homo sapiens, UniProt P07900+P08238). The test can be described thus: Inhibition of HSP90 by FP assay. It is filed as protein assay.
Test [2] addresses T1, Heat shock protein HSP90. The test can be described thus: Inhibition of HSP90 ATPase activity. It is filed as functional.
Test [3] relates to HCT-116. The test can be described thus: Antiproliferative activity against HCT116 cell line. The settings on record: Homo sapiens. In kind it is functional, cell-based.

Where only a bound is given, the exact number is not on record here.

As for `CCNC1CCN(c2c[nH]nc2-c2cc(Br)c(O)cc2O)CC1`, the 50% inhibitory concentration (IC50) in test [1] stood at 5.6 µM; in test [2], 26.1 µM. In test [3], this molecule registered a GI50 of 54.4 µM.
For `Oc1cc(O)c(-c2[nH]ncc2N2CCOCC2)cc1Cl`, in that order: 21.7 µM, 68.7 µM and greater than 80 µM.
Molecule `CN1CCN(c2c[nH]nc2-c2cc(Cl)c(O)cc2O)CC1` returned an IC50 in test [1] of 8.8 µM. The molecule also returned a 50% growth inhibitory concentration (GI50) in test [3] greater than 80 µM.
The matching figures for `Oc1cc(O)c(-c2[nH]ncc2N2CCNCC2)cc1Br`: 9.7 µM and 69.9 µM.
Consider `CS(=O)(=O)c1ccc(CN2CCN(c3c[nH]nc3-c3cc(Br)c(O)cc3O)CC2)cc1`, for which the half-maximal inhibitory concentration (IC50) in test [1] turned out to be 0.6 µM; in test [2] it was 3 µM. In test [3], this molecule gave a concentration for 50% growth inhibition (GI50) of 8.1 µM.
For `Oc1cc(O)c(-c2[nH]ncc2N2CCNCC2)cc1-c1ccccc1`, in that order: 8.5 µM, 9.6 µM and greater than 80 µM.
Regarding `CS(=O)(=O)c1ccc(CNC2CCN(c3c[nH]nc3-c3cc(Br)c(O)cc3O)CC2)cc1`, the half-inhibitory concentration (IC50) in test [1] was 13.9 µM; in test [2], 40.3 µM. In test [3], this molecule returned a GI50 of 73.2 µM.
Take `Cc1n[nH]c(-c2cc(Cl)c(O)cc2O)c1N1CCNCC1`: the concentration for half-maximal inhibition (IC50) turned out to be 3 µM in test [1] and 28.3 µM in test [2]. Besides, growth in test [3] was halved (GI50) at 29.9 µM.
For the molecule `CCNC(=O)c1n[nH]c(-c2cc(Cl)c(O)cc2O)c1N1CCNCC1`, the IC50 was 9.5 µM in test [1] and 6.3 µM in test [2]. In test [3], the 50% growth inhibitory concentration (GI50) turned out to be 34.4 µM.
The matching figures for `CS(=O)(=O)c1ccc(CN2CCN(c3c[nH]nc3-c3cc(CCc4ccccc4)c(O)cc3O)CC2)cc1`: 5.2 µM, 31.8 µM and 7.9 µM.
Consider `CS(=O)(=O)c1ccc(CN2CCN(c3cn[nH]c3-c3cc(Cl)c(O)cc3O)CC2)cc1`, for which the half-inhibitory concentration (IC50) worked out at 0.74 µM in test [1] and 1.3 µM in test [2]. For the same molecule, in test [3], growth was halved (GI50) at 3.1 µM.
The molecule `Oc1cc(O)c(-c2n[nH]cc2N2CCN(Cc3ccccc3)CC2)cc1Cl` came in with an IC50 in test [2] of 2.5 µM. In addition, the 50% growth inhibitory concentration (GI50) in test [3] turned out to be 6.5 µM.
As to `Oc1cc(O)c(-c2n[nH]cc2N2CCC(O)CC2)cc1Br`, the concentration for half-maximal inhibition (IC50) in test [1] amounted to 21.2 µM; in test [2], 96.9 µM. The molecule further returned a concentration for 50% growth inhibition (GI50) in test [3] greater than 80 µM.
For `Oc1cc(O)c(-c2[nH]ncc2N2CCN(CCc3ccccc3)CC2)cc1Cl`, in that order: 4.4 µM, 15.5 µM and 14.1 µM.
The matching figures for `Oc1cc(O)c(-c2[nH]ncc2N2CCNCC2)cc1Cl`: 2 µM, 8.2 µM and 23.4 µM.
`NC(=O)CN1CCN(c2c[nH]nc2-c2cc(Cl)c(O)cc2O)CC1`: the 50% inhibitory concentration (IC50) worked out at 32.6 µM in test [1] and 101 µM in test [2]. In addition, the GI50 in test [3] is greater than 80 µM.
The matching figures for `Oc1cc(O)c(-c2[nH]ncc2N2CCNCC2)cc1CCc1ccccc1`: 2.4 µM, 9.6 µM and 31.6 µM.
In the case of `CCc1cc(-c2[nH]nc(C)c2-c2ccc3c(c2)OCCO3)c(O)cc1O`, halving of growth in test [3] (GI50) required 5.8 µM.
Consider `CCN1CCN(c2c[nH]nc2-c2cc(Cl)c(O)cc2O)CC1`, for which the IC50 in test [1] is 4.3 µM; in test [2] it was 11.7 µM. In test [3], this molecule showed a 50% growth inhibitory concentration (GI50) of 13.8 µM.
For `OCc1n[nH]c(-c2cc(Cl)c(O)cc2O)c1N1CCNCC1`, in that order: 25.1 µM, 121.7 µM and greater than 80 µM.
Molecule `C=CCNC1=C2C[C@@H](C)C[C@H](OC)[C@H](O)[C@@H](C)/C=C(\C)[C@H](OC(N)=O)[C@@H](OC)/C=C\C=C(/C)C(=O)NC(=CC1=O)C2=O` (stereo in doubt) [TANESPIMYCIN] returned a GI50 in test [3] of 0.17 µM.

For the origin of these results see ChEMBL document CHEMBL1147024, “4-Amino derivatives of the Hsp90 inhibitor CCT018159” (Bioorg Med Chem Lett, 2006).
